This note sets out measurements from patent publication US12077555B2, “STAT degraders and uses thereof” (Kymera Therapeutics, Inc., priority 2019, dated 2024).

Broadly, the DC50 is the concentration giving 50% degradation.

In assay [1] the target is STAT3 (Homo sapiens, UniProt P40763). Kind of assay: STAT3 HiBiT degradation assay in transfected A549 cells. Format: cell-based. More on the design: expressed in transfected cells; host or cells: A549. The note with it: A549, 24 h; read-out: STAT3 HiBiT A549 degradation 24 h: Average external-Abs DC50. An outline of the steps: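 Degradation read as HiBiT-tagged STAT3 luminescence (Nano-Glo lytic reagent, 10 min, room temperature) following 24 h compound treatment of transfected A549 cells at 3-fold, 10 points. Percent remaining signal computed against controls and fitted with a four-parameter logistic; DC50 reported as letter bins (A <0.01 to D >1.0 µM).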
STAT3, sequence (P40763 whole entry): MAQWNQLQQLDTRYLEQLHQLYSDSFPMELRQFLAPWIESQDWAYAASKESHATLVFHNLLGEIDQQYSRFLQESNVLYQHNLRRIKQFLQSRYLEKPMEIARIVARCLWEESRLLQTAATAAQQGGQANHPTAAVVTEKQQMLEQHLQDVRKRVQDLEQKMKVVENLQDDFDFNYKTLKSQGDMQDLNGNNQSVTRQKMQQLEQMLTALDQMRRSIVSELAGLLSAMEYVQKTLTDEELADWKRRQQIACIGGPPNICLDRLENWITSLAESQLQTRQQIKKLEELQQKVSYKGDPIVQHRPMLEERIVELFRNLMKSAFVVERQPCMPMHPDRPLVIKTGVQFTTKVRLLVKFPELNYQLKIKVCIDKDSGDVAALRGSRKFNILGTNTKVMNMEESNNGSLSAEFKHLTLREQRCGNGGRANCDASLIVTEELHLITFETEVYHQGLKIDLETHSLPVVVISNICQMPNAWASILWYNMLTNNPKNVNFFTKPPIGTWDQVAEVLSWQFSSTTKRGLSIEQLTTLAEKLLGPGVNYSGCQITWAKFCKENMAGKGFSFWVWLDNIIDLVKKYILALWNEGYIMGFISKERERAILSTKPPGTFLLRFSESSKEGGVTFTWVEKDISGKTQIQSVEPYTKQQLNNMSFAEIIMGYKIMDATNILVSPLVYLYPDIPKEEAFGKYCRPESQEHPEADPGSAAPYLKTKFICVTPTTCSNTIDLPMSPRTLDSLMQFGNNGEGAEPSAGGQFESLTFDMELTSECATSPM
(In general: HiBiT is a short tag that completes a luciferase, so light tracks the accessible tagged protein.)

In assay [2] the test system is SU-DHL-1 tumor cells. Kind of assay: Xenograph tumor study, SU-DHL-1. Format: in vivo, NOD SCID mice. Particulars: SUDHL-1 xenograph, 2.5-30 mg/kg, 2 days on/5 days off. How it is done: Animals: 50 6-8 week old female NOD SCID mice weighing 18 to 20 grams. 25 mice were used in each study.
Method for Tumor Inoculation: Each mouse was inoculated subcutaneously with SU-DHL-1 tumor cells (1×107+Matrigel) or SUP-M2 tumor cells (5×106+Matrigel) in 0.1 ml of RPMI1640 medium supplemented with 10% FBS, 100 U/ml penicillin and […] streptomycin for tumor development. Mice were then assigned to groups such that the mean tumor volume was the same for each treatment group and time point. […] Vehicle was 25% HP-β-CD in water adjusted to pH 7.4.
Measurement Parameters: Study animals were monitored not only for tumor growth but also behavior such as mobility, food and water consumption (by cage side checking only), body weight (BW), eye/hair matting and any other abnormal effect. Any mortality and/or abnormal clinical signs was recorded. Sponsor was notified immediately if abnormal clinical signs, or if tolerability issues were observed. Body weights of all animals were measured and recorded twice per week. The measurement of tumor size was conducted twice weekly with a caliper and recorded. The tumor volume (mm3) was estimated using the formula: TV=a×b2/2, where “a” and “b” are long and short diameters of a tumor, respectively.

With `Cn1c(=O)n(C2CCC(=O)NC2=O)c2ccc(C[C@H]3CC[C@@H](CC(=O)N4CC[C@H]5CC[C@@H](C(=O)N[C@@H](CCC(N)=O)C(=O)NCc6ccc(S(C)(=O)=O)cc6)N5C(=O)[C@@H](NC(=O)c5cc6cc(C(=O)P(=O)(O)O)ccc6[nH]5)C4)CC3)cc21` (stereo partly drawn) [Compound I-195, 2-[[(5S,8S,10aR)-8-[[(1S)-3-carbamoyl-1-[[(4-methanesulfonylphenyl)methyl]carbamoyl]propyl]carbamoyl]-6-oxo-3-[2-[(1S,4S)-4-[[1-(2,6-dioxopiperidin-3-yl)-3-methyl-2-oxo-1,3-benzodiazol-5-yl]methyl]cyclohexyl]acetyl]-octahydropyrrolo[1,2-a][1,5]diazocin-5-yl]carbamoyl]-1H-indole-5-carbonylphosphonic acid], in assay [1], the DC50 is 10 to 100 nM. Further, in assay [2] (IP), the “tumor volume, 5 days” value is recorded as “A (A<500 mm^3)”; the “tumor volume, 10 days” value was “A (A<500 mm^3)”; the “tumor volume, 15 days” value is “A (A<500 mm^3)”; the “tumor volume, 20 days” value was “A (A<500 mm^3)”.
As to `CC(=O)N1CC[C@H]2CC[C@@H](C(=O)N[C@@H](CCC(N)=O)COc3cccc(CCCCC(=O)N[C@H](C(=O)N4C[C@H](O)C[C@H]4C(=O)N[C@@H](C)c4ccc(-c5scnc5C)cc4)C(C)(C)C)c3Cl)N2C(=O)[C@@H](NC(=O)c2cc3cc(C(=O)P(=O)(O)O)ccc3[nH]2)C1` [Compound I-233, diammonium 2-[[(5S,8S,10aR)-3-acetyl-8-[[(2S)-4-carbamoyl-1-[2-chloro-3-(4-[[(2S)-1-[(2S,4R)-4-hydroxy-2-[[(1S)-1-[4-(4-methyl-1,3-thiazol-5-yl)phenyl]ethyl]carbamoyl]pyrrolidin-1-yl]-3,3-dimethyl-1-oxobutan-2-yl]carbamoyl]butyl)phenoxy]butan-2-yl]carbamoyl]-6-oxo-octahydropyrrolo[l,2-a][1,5]diazocin-5-yl]carbamoyl]-1H-indole-5-carbonylphosphonate], the 50% degradation concentration (DC50) in assay [1] was less than 10 nM. In assay [2] (IV), the “tumor volume, 5 days” value is given as “A (A<500 mm^3)”; the “tumor volume, 10 days” value is reported as “A (A<500 mm^3)”; the “tumor volume, 15 days” value was “A (A<500 mm^3)”; the “tumor volume, 20 days” value is “A (A<500 mm^3)”.
For the molecule `CC(C)c1ccc(CNC(=O)[C@H](CCC(N)=O)NC(=O)[C@@H]2CC[C@@H]3CCN(C(=O)C[C@H]4CC[C@@H](Cc5ccc6c(c5)n(C)c(=O)n6C5CCC(=O)NC5=O)CC4)C[C@H](NC(=O)c4cc5cc(C(=O)P(=O)(O)O)ccc5[nH]4)C(=O)N32)cc1` (stereo partly drawn) [Compound I-196, 2-[[(5S,8S,10aR)-8-[[(1S)-3-carbamoyl-1-[[(4-isopropylphenyl)methyl]carbamoyl]propyl]carbamoyl]-6-oxo-3-[2-[(1S,4S)-4-[[1-(2,6-dioxopiperidin-3-yl)-3-methyl-2-oxo-1,3-benzodiazol-5-yl]methyl]cyclohexyl]acetyl]-octahydropyrrolo[1,2-a][1,5]diazocin-5-yl]carbamoyl]-1H-indole-5-carbonylphosphonic acid], the 50% degradation concentration (DC50) in assay [1] fell in the range of 10 to 100 nM. Further, in assay [2] (IP), the “tumor volume, 5 days” value was “A (A<500 mm^3)”; the “tumor volume, 10 days” value was “A (A<500 mm^3)”; the “tumor volume, 15 days” value is on record as “A (A<500 mm^3)”; the “tumor volume, 20 days” value is “A (A<500 mm^3)”.
Regarding `CC(=O)N1CC[C@H]2CC[C@@H](C(=O)N[C@@H](CCC(N)=O)COc3cc(C)cc(CCCCCC(=O)N[C@H](C(=O)N4C[C@H](O)C[C@H]4C(=O)N[C@@H](C)c4ccc(-c5scnc5C)cc4)C(C)(C)C)c3F)N2C(=O)[C@@H](NC(=O)c2cc3cc(C(=O)P(=O)(O)O)ccc3[nH]2)C1` [Compound I-262, 2-[[(5S,8S,10aR)-3-acetyl-8-[[(2S)-4-carbamoyl-1-[2-fluoro-3-(5-[[(2S)-1-[(2S,4R)-4-hydroxy-2-[[(1S)-1-[4-(4-methyl-1,3-thiazol-5-yl)phenyl]ethyl]carbamoyl]pyrrolidin-1-yl]-3,3-dimethyl-1-oxobutan-2-yl]carbamoyl]pentyl)-5-methylphenoxy]butan-2-yl]carbamoyl]-6-oxo-octahydropyrrolo[1,2-a][1,5]diazocin-5-yl]carbamoyl]-1H-indole-5-carbonylphosphonic acid], the DC50 in assay [1] was less than 10 nM. Moreover, in assay [2] (IV), the “tumor volume, 5 days” value is reported as “A (A<500 mm^3)”; the “tumor volume, 10 days” value was “A (A<500 mm^3)”; the “tumor volume, 15 days” value is “A (A<500 mm^3)”; the “tumor volume, 20 days” value is on record as “A (A<500 mm^3)”.
For the molecule `CC(=O)N1CC[C@H]2CC[C@@H](C(=O)N[C@@H](CCC(N)=O)COc3cccc(CCCC(=O)N[C@H](C(=O)N4C[C@H](O)C[C@H]4C(=O)N[C@@H](C)c4ccc(-c5scnc5C)cc4)C(C)(C)C)c3Cl)N2C(=O)[C@@H](NC(=O)c2cc3cc(C(=O)P(=O)(O)O)ccc3[nH]2)C1` [Compound I-241, diammonium 2-[[(5S,8S,10aR)-3-acetyl-8-[[(2S)-4-carbamoyl-1-[2-chloro-3-(3-[[(2S)-1-[(2S,4R)-4-hydroxy-2-[[(1S)-1-[4-(4-methyl-1,3-thiazol-5-yl)phenyl]ethyl]carbamoyl]pyrrolidin-1-yl]-3,3-dimethyl-1-oxobutan-2-yl]carbamoyl]propyl)henoxy]butan-2-yl]carbamoyl]-6-oxo-octahydropyrrolo[1,2-a][1,5]diazocin-5-yl]carbamoyl]-1H-indole-5-carbonylphosphonate], the half-maximal degradation concentration (DC50) in assay [1] is less than 10 nM. Moreover, in assay [2] (IV), the “tumor volume, 5 days” value is reported as “A (A<500 mm^3)”; the “tumor volume, 10 days” value is “A (A<500 mm^3)”; the “tumor volume, 15 days” value is “A (A<500 mm^3)”; the “tumor volume, 20 days” value is on record as “A (A<500 mm^3)”.
As to `Cc1ncsc1-c1ccc([C@H](C)NC(=O)[C@@H]2C[C@@H](O)CN2C(=O)[C@@H](NC(=O)CCCc2cccc(OC[C@H](CCC(N)=O)NC(=O)[C@@H]3Cc4cccc5c4N3C(=O)[C@@H](NC(=O)c3cc4cc(C(=O)P(=O)(O)O)ccc4[nH]3)CC5)c2F)C(C)(C)C)cc1` [Compound I-261, 2-[[(2S,11S)-2-[[(2S)-4-carbamoyl-1-[2-fluoro-3-(3-[[(2S)-1-[(2S,4R)-4-hydroxy-2-[[(1S)-1-[4-(4-methyl-1,3-thiazol-5-yl)phenyl]ethyl]carbamoyl]pyrrolidin-1-yl]-3,3-dimethyl-1-oxobutan-2-yl]carbamoyl]propyl)phenoxy]butan-2-yl]carbamoyl]-12-oxo-1-azatricyclo[6.4.1.0^[4,13]]trideca-4(13),5,7-trien-11-yl]carbamoyl]-1H-indole-5-carbonylphosphonic acid], the half-maximal degradation concentration (DC50) in assay [1] is less than 10 nM. Also, in assay [2] (IP), the “tumor volume, 5 days” value is on record as “A (A<500 mm^3)”; the “tumor volume, 10 days” value was “A (A<500 mm^3)”; the “tumor volume, 15 days” value is reported as “A (A<500 mm^3)”; the “tumor volume, 20 days” value is recorded as “A (A<500 mm^3)”.
